Laboratory results taken from patent US9408853B2, “Iridium/rhodium anti-cancer compounds” (University of Warwick, priority 2010, dated 2016).
Values joined by “and” are separate entries in the source; they are usually repeats but may differ in a detail not shown here. Equal entries are not always repeated.

What was measured:
9-ethylguanine (9-EtG) = experiment: Interactions with nucleobases: 9-EtG adduct formation (1H NMR); type: binding; details: 1 mM, 1 mol equiv 9-EtG (ZL33A: 2 mol equiv), D2O, 310 K
Summary of the method: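 Complexes (1 mM, equilibrium mixture with their aqua adducts) in 5% MeOD-d4/95% D2O mixed with 1–2 mol equiv 9-EtG in D2O. Adduct formation followed by 1H NMR at 310 K over various time intervals.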

[1] = tested on: ca. 60 cell lines within nine tumour type subpanels; type: cell-based
Text: Six complexes, [(η^5-C5Me4C6H4C6H5)Ir(bpy)Cl]PF6 (ZL25, bpy=2,2′-bipyridine), [(η^5-C5Me4C6H5)Ir(phen)Cl]PF6 (ZL33, phen=1,10-phenanthroline), [(η^5-C5Me4C6H4C6H5) Ir(pico)Cl] (ZL43, pico=picolinate), [(η^5-C5Me5)Ir(2-phpy)Cl] (ZL47), [(η^5-C5Me4C6H4C6H5)Ir(2-phPY)(D2O)Cl] (ZL49) and [(η^5-C5Me4C6H4C6H5) Ir(phen)Cl]PF6 (ZL54), were selected by Developmental Therapeutics Program of National Cancer Institute (NCI, U.S.A.) for in vitro screening test, in which 5 complexes except ZL43 are selected for further testing. The five complexes were tested on ca. 60 cell lines within nine tumour type subpanels at five concentrations ranging from 0.01 to 100 μM.

9-ethyladenine (9-EtA) = experiment: Interactions with nucleobases: 9-EtA adduct formation (1H NMR); type: binding; details: 10 min; 1 mM, 1 mol equiv 9-EtA, D2O, 310 K
Experimental: Interactions with Nucleobases. The reaction of ZL01, ZL03, ZL04, ZL07, ZL25, ZL33, ZL37, ZL38, ZL43 and ZL54 and ZL33A with nucleobases typically involved addition of a solution containing 1-2 mol equiv of nucleobase in D2O, to an equilibrium solution of ZL01, ZL03, ZL04, ZL07, ZL25, ZL33, ZL37, ZL38, ZL43, ZL54 and ZL33A in a solution of 5% MeOD-d4/95% D2O (v/v). ^1H NMR spectra of these solutions were recorded at 310 K after various time intervals.
Since DNA is a potential target site for transition metal anticancer complexes,^18 nucleobase binding reactions of compounds ZL01, ZL03, ZL04, ZL07, ZL25, ZL33, ZL33A, ZL37, ZL38, ZL43 and ZL54 with nucleobase models 9-ethylguanine (9-EtG) and 9-ethyladenine (9-EtA), were investigated. Solutions of ZL01, ZL03, ZL04, ZL07, ZL25, ZL33, ZL37, ZL38, ZL43 and ZL54 (1 mM) (containing an equilibrium mixture of these complexes and their respective aqua adducts) with 1 mol equivalent of 9-EtG or 9-EtA in D2O were prepared, and ^1H NMR spectra were recorded at different time intervals.

[2] = Aqua adduct formation of ZL33 at chloride levels of nucleus, cytoplasm and plasma (1H NMR); type: physicochemical; details: 1 mM in D2O, 310 K
Experimental: The effects of chloride concentrations typical of blood plasma (100 mM), cell cytoplasm (22.7 mM), and cell nucleus (4 mM) on the aqueous chemistry of ZL33 was investigated. ^1H NMR spectra of ZL33 (1 mM) were recorded within 10 min of sample preparation and after incubation at 310 K for 24 h (FIG. 4). […] (pH* 6.52) or in 22.7 mM [Cl] (pH* 6.72), and only 5% of ZL33A at 4 mM [Cl] (pH* 6.89) after 10 min. No significant change was observed after 24 h, see Table 2.

CH1 cancer cell line = experiment: Cytotoxicity, MTT assay (Brabec group); type: cell-based
Experimental: (§1) The cytotoxicity test of ZL07, ZL33, ZL38 and ZL54 against A2780, SW480, A549 and CH1 cell lines was performed by Viktor Brabec group (Institute of Biophysics, Academy of Sciences of the Czech Republic). After plating, the cells were treated with ZL07, ZL33, ZL38 and ZL54. After 72h of incubation 10 μl of MTT (2.5 mg/ml; CALBIOCHEM) was added to each well and incubated for 4 h in culture conditions. At the end of the incubation period the medium was removed and the formazan product was dissolved in 100 μl DMSO. The cell viability was evaluated by measurement of the absorbance at 570 nm, using an Absorbance Reader SUNRICE TECAN SCHOELLER. […] All experiments were made in quadruplicate.

A549 cancer cell line = experiment: Cytotoxicity, MTT assay (Brabec group); type: cell-based
Experimental: as §1

SW480 cancer cell line = experiment: Cytotoxicity, MTT assay (Brabec group); type: cell-based
Experimental: as §1

[3] = highest test concentration 130 μM

Cc1c(C)c(-c2ccccc2)[c-](C)c1C.F[P-](F)(F)(F)(F)F.[Cl-].[Ir+3].c1cnc2c(c1)ccc1cccnc12 (stereo not drawn) [ZL33, [(η^5-C5Me4C6H5)Ir(phen)Cl]PF6]
Reaction with 9-EtG, extent of adduct formation (9-ethylguanine (9-EtG); 10 min): 15% and 15.5%
Reaction with 9-EtG, extent of adduct formation (9-ethylguanine (9-EtG); 24 h): 42.2%
CC50 [1]: 93.3 µM
Mean graph midpoint (MID) TGI ([1]; ca. 60 cell lines, 0.01 to 100 μM): 51.3 µM
GI50 ([1]; ca. 60 cell lines, 0.01 to 100 μM, read-out: Mean graph midpoint (MID) GI50): 10.7 µM
selectivity among tumour type subpanels (in words) ([1]; mean graphs): selective for leukemia, CNS cancer, melanoma, and prostate cancer
Reaction with 9-EtA, extent of adduct formation (9-ethyladenine (9-EtA)): 0%
% aqua adduct of ZL33 (ZL33A) ([2]; 4 mM NaCl, t = 10 min): 5%
% aqua adduct of ZL33 (ZL33A) ([2]; 4 mM NaCl, t = 24 h): 5%
% aqua adduct of ZL33 (ZL33A) ([2]; 22.7 mM NaCl, t = 24 h): 0%
% aqua adduct of ZL33 (ZL33A) ([2]; 100 mM NaCl, t = 24 h): 0%
IC50 (CH1 cancer cell line; 72 h incubation, MTT): 1.32 ± 0.3 µM
cytotoxicity towards CH1 (in words) (CH1 cancer cell line; [3]): promising cytotoxicity
IC50 (A549 cancer cell line; 72 h incubation, MTT): 11.5 ± 2.4 µM
cytotoxicity towards A549 (in words) (A549 cancer cell line; [3]): promising cytotoxicity
IC50 (SW480 cancer cell line; 72 h incubation, MTT): 1.41 ± 0.2 µM
times more active than cisplatin (SW480 cancer cell line; SW480): ca. 6.5 times
cytotoxicity towards SW480 (in words) (SW480 cancer cell line; [3]): promising cytotoxicity
